From ChEMBL document CHEMBL1201862, “PubChem BioAssay data set” (2004) come the findings set out here.

Structures are written as SMILES.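 Protocol summary: plate cells (96-well), add compound at 5 concentrations, incubate 48 h, interpolate endpoints linearly. GI50 marks 50% less growth.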 Activity calls are given as the source filed them. Cut-off read from the data, not from the text of the source: active = GI50 up to about 1.1 µM and inactive = higher. Bounds are passed on as bounds.

Among the test systems are A549; COLO 205; DLD-1; EKVX; HOP-92; LOX IMVI; M14; MOLT-4; Malme-3M; NCI-H226; NCI-H460; NCI-H522; OVCAR-8; SF-295; SNB-19; TK-10.
What all share (assay): DTP human tumour cell line panel, 48 h

Usually GI50 stands for the concentration giving 50% growth inhibition. With `O=[As](O)(O)c1cc(/N=N/c2ccc(-c3ccc(/N=N/c4cc([As](=O)(O)O)c(O)cc4O)cc3)cc2)c(O)cc1O`, the GI50 is > 100 µM (inactive) in the assay on A549; > 100 µM (inactive) with COLO 205; > 43 µM (inactive) with DLD-1; > 100 µM (inactive) with EKVX; > 100 µM (inactive) in the assay with HOP-92; > 100 µM (inactive) in the assay with LOX IMVI. Also, the GI50 with M14 was > 53 µM (inactive); in the assay on MOLT-4, > 100 µM (inactive); in the assay with Malme-3M, > 69.2 µM (inactive); in the assay on NCI-H226 it was > 100 µM (inactive); in the assay with NCI-H460 it was > 100 µM (inactive); with NCI-H522, > 100 µM (inactive). Further, the GI50 in the assay with OVCAR-8, in the assay on SF-295, in the assay with SNB-19 and with TK-10 was > 100 µM (inactive) each time.
With `CCCCCCCCCC(=O)CC(=O)c1ccc(O)cc1O`, the GI50 with A549 is 31.3 µM (inactive); in the assay with COLO 205 it was > 100 µM (inactive); with DLD-1, 28.5 µM (inactive); with EKVX, 25.9 µM (inactive); in the assay on HOP-92, 27.7 µM (inactive); in the assay on LOX IMVI it was 17.5 µM (inactive). The GI50 is 22.1 µM (inactive) in the assay with M14; 17.6 µM (inactive) with MOLT-4; 52.6 µM (inactive) in the assay with Malme-3M; 24.3 µM (inactive) with NCI-H226; 31.8 µM (inactive) in the assay with NCI-H460; 18.6 µM (inactive) in the assay on NCI-H522. Also, the GI50 in the assay on OVCAR-8 was 22.6 µM (inactive); in the assay on SF-295, 25.6 µM (inactive); in the assay on SNB-19 it was 37 µM (inactive); in the assay on TK-10, 40.8 µM (inactive).
As to `CCC12C=CCN3CCC4(C(=C(C(=O)OC)C1)Nc1ccccc14)[C@H]32` (some centres undefined), the GI50 with A549 is 34.7 µM (inactive); in the assay with COLO 205, 18.4 µM (inactive); with DLD-1 it was 40.4 µM (inactive); in the assay on EKVX, 51.1 µM (inactive); in the assay with HOP-92, 23.4 µM (inactive); with LOX IMVI, 20.8 µM (inactive). For the same compound, the GI50 is 21.6 µM (inactive) with M14; 26.7 µM (inactive) in the assay on MOLT-4; 42.4 µM (inactive) with Malme-3M; 31.8 µM (inactive) in the assay on NCI-H226; 18.8 µM (inactive) in the assay on NCI-H460; 22.1 µM (inactive) in the assay with NCI-H522. Moreover, the GI50 with SF-295 was 28.3 µM (inactive); in the assay with SNB-19, 26.6 µM (inactive); with TK-10, 68.9 µM (inactive).
In the case of `CO[C@@]12CC(=O)/C(=C(O)\C=C\c3ccccc3)C(=O)[C@]1(OC)Cc1ccccc1O2`, the GI50 with A549 was 25.7 µM (inactive); in the assay with COLO 205, 47.5 µM (inactive); with DLD-1, 32.2 µM (inactive); in the assay on EKVX it was 38.5 µM (inactive); with HOP-92, 48.6 µM (inactive); in the assay with LOX IMVI, 32.3 µM (inactive). The GI50 is 28.1 µM (inactive) in the assay with M14; 29.7 µM (inactive) with MOLT-4; 91 µM (inactive) in the assay on Malme-3M; 22.5 µM (inactive) in the assay with NCI-H226; 28.9 µM (inactive) in the assay on NCI-H460; 29.9 µM (inactive) with NCI-H522. Besides, the GI50 was 22.3 µM (inactive) with OVCAR-8, 29.8 µM (inactive) in the assay on SF-295, 30.1 µM (inactive) in the assay on SNB-19 and 42.8 µM (inactive) in the assay on TK-10.
In the case of `Cn1cc(NC(=O)c2cc(NC(=O)CCCCCCCCC(=O)Nc3cc(C(=O)Nc4cc(C(=O)NCCC(N)N)n(C)c4)n(C)c3)cn2C)cc1C(=O)NCCC(=N)N`, the GI50 with A549 was 16.9 µM (inactive); in the assay on COLO 205 it was 20 µM (inactive); with DLD-1, 25.5 µM (inactive); in the assay on EKVX, 20.3 µM (inactive); with HOP-92 it was 36.6 µM (inactive); in the assay with LOX IMVI it was 36.9 µM (inactive). In addition, the GI50 in the assay with M14 was 22.3 µM (inactive); in the assay on MOLT-4 it was 19.9 µM (inactive); in the assay on Malme-3M, 0.935 µM (active); in the assay with NCI-H226, 25.8 µM (inactive); in the assay on NCI-H460, 20.1 µM (inactive); in the assay on NCI-H522, 8.99 µM (inactive). Moreover, the GI50 in the assay with OVCAR-8 is 21.4 µM (inactive); with SF-295, 23.3 µM (inactive); with SNB-19, 21.4 µM (inactive); in the assay on TK-10, 18.2 µM (inactive).
As for `Cc1cccc(NC(=O)C(=O)C(C(=O)c2ccc3ccccc3c2)C2OC(=O)c3ccccc32)c1C` (centres undefined), the GI50 was 19.1 µM (inactive) with A549; 11.5 µM (inactive) with COLO 205; 14.8 µM (inactive) in the assay on DLD-1; 26.1 µM (inactive) with EKVX; 11.8 µM (inactive) with HOP-92; 13.2 µM (inactive) in the assay with LOX IMVI. Besides, the GI50 is 14.4 µM (inactive) in the assay on M14; 3.78 µM (inactive) in the assay with MOLT-4; 6.05 µM (inactive) in the assay on Malme-3M; 2.39 µM (inactive) in the assay with NCI-H226; 9.16 µM (inactive) in the assay on NCI-H460; 14.1 µM (inactive) in the assay on NCI-H522. Further, the GI50 in the assay with OVCAR-8 was 10.3 µM (inactive); in the assay with SNB-19, 5.4 µM (inactive); in the assay on TK-10 it was 23.3 µM (inactive).
Regarding `COc1cc2ccc3c4cc(OC)c(OC(C)C)cc4cnc3c2cc1OC`, the GI50 in the assay on A549, in the assay on COLO 205, in the assay on DLD-1, in the assay on EKVX, with HOP-92 and with LOX IMVI was > 100 µM (inactive) each time. Besides, the GI50 in the assay on M14, in the assay with MOLT-4, in the assay on Malme-3M, with NCI-H226, in the assay with NCI-H460 and in the assay with NCI-H522 was > 100 µM (inactive) in each case. The GI50 in the assay with OVCAR-8, in the assay with SF-295, in the assay on SNB-19 and in the assay on TK-10 was > 100 µM (inactive) in each case.
For the compound `COc1cc(C(C#N)NNC(=O)c2ccccc2O)ccc1O` (centres undefined), the GI50 was 0.662 µM (active) in the assay with A549; 28.6 µM (inactive) with COLO 205; 4.22 µM (inactive) in the assay on DLD-1; 2.98 µM (inactive) in the assay with HOP-92; 2.33 µM (inactive) with LOX IMVI; 2.79 µM (inactive) in the assay on M14. The GI50 was 6.15 µM (inactive) with MOLT-4; 9.4 µM (inactive) in the assay on Malme-3M; 2.05 µM (inactive) in the assay with NCI-H226; 1.47 µM (inactive) in the assay on NCI-H460; 3.14 µM (inactive) in the assay on NCI-H522; 5.83 µM (inactive) in the assay on OVCAR-8. For the same compound, the GI50 was 3.28 µM (inactive) in the assay on SF-295 and 4.11 µM (inactive) in the assay on TK-10.
